Source: patent US8246999B2, “Capped mesoporous silicates” (Iowa State University Research Foundation, Inc., priority 2003, dated 2012)
Entries after “also recorded” stand apart in the source; their conditions may differ. Structures can show the parent of a compound that is named as a salt.

What was measured:
astrocytes = format: cell-based, rat
Method: • (i) Wistar rats, raised at Iowa State University, were used for these experiments. Animal care and experimental protocols were in accordance with the guidelines and approval of the Iowa State University Committee on Animal Care. • (ii) Cell Cultures. Enriched primary astrocyte cultures from neonatal (P0 to P3) rat cerebral cortex were prepared as previously described by Jeremic, A., et al., J. Neurochem. 2001, 77, 664-675. Briefly, freshly dissected cortical tissues from three animals were incubated 50 minutes at 37° C. in 2.00 mL of Earle's balanced salt solution (EBSS; Gibco-Invitrogen Co.) containing papain (1.54 mg/mL; Sigma-Aldrich Co.). After incubation, tissue was rinsed with EBSS solution and incubated for 5 minutes in trypsin-inhibitor solution (1 mg/mL; Gibco-Invitrogen Co.). After being rinsed, once with EBSS solution and once with culture medium (consisting of α-minimum essential medium (α-MEM; Gibco-Invitrogen Co.) supplemented with 10% heat-inactivated fetal bovine serum (FBS; Gibco-Invitrogen Co.) and 1.00 mL of penicillin-streptomycin solution (Sigma-Aldrich Co.) per 100 mL), the tissue was mechanically dispersed in culture medium by triturating through a fire-polished glass pipet. The cell suspension was transferred to sterile 15-mL centrifuge tubes and spun at 1000 g for 10 minutes. Cell pellets were resuspended in culture medium (α-MEM supplemented with 10% heat-inactivated FBS and 1.00 mL of penicillin-streptomycin solution per 100.00 mL) and plated in culture flasks. Cells were maintained at 37° C. in a humidified 5% CO2/95% air atmosphere. Culture medium was changed every 2 to 3 days. When mixed cultures reached confluence (9-12 days), the flasks were shaken (260 rpm) for 90 minutes to remove microglia and dividing type I astroglia. After shaking the cells, medium was replaced, and the flasks were incubated for 1 hour to equilibrate with CO2 in the fresh medium. Cultures were then shaken overnight (12-18 hours) at 260 rpm at 37° C. Cultures enriched in type I astroglia were obtained by trypsinizing (0.25%; Sigma-Aldrich Co.) attached cells for 5 minutes. […]

[1] = Loading of vancomycin and ATP into linker-MSN and capping with CdS (HPLC of filtrate); format: physicochemical; conditions: for amount of mesopore-encapsulated molecule per 100.0 mg of linker-MSN material: CdS-capped MSN, calculated from concentration decrease in filtrate, HPLC; for loading efficiency: CdS-capped linker-MSN
Method: Purified linker-MSN material from sub-part (b) below (100.00 mg) was incubated in a PBS buffer solution (0.60 mL, pH 7.4) of ATP or vancomycin (3.00 μmol in both cases) for 24 hours. Mercaptoacetic acid-functionalized CdS nanoparticles from sub-part (c) below (0.15 mmol) were dissolved in 2.00 mL of PBS buffer with vancomycin or ATP (0.01 mmol in both cases); 1-[3-(dimethylamino)propyl]-3-ethylcarbodiimide hydrochloride (EDC) (57.50 mg, 0.30 mmol) was added to the CdS/drug solution. The reaction mixture was allowed to stir for 24 hours, followed by centrifuging the suspension at 12 000 rpm for 3 minutes. The resulting precipitates (ATP- or vancomycin-loaded, CdS-capped MSNs) were isolated and dried under vacuum.
The resulting reaction suspensions were centrifuged, and the CdS-capped MSN/drug composite materials along with the unreacted CdS nanoparticles were filtered. The concentrations of the free vancomycin and ATP molecules in the filtrate were then determined by HPLC. The calculated concentration decreases of solution vancomycin and ATP were attributed to the amounts of mesopore-encapsulated vancomycin (2.5 μmol) and ATP (4.7 μmol) per 100.0 mg of linker-MSN material. These numbers correspond to ca. 83.9 and 30.3 mol % loading efficiency, respectively.

[2] = DTT-induced drug/neurotransmitter release study from CdS-capped MSN (HPLC); format: physicochemical; conditions: for amount released / portion of encapsulated molecules released: after 3 days of DTT-induced uncapping; for release as share of the total release seen in 3 days: within 24 hours after introduction of 18.5 mM DTT
Method: CdS-capped MSN with vancomycin or ATP (10.00 mg) material was dispersed in 1.50 mL of PBS buffer (pH 7.4), followed by repeating wash/sonication/centrifugation cycles for five times to remove physisorbed, uncapped vancomycin or ATP molecules on the exterior surface of the material. The purified MSN/drug composite was redispersed in 3.50 mL of PBS buffer (pH 7.4). Aliquots were taken every 4 hours over a time period of 12 hours from the MSN/water suspension and injected to an analytical HPLC system (Hitachi LC/3DQMS with a reverse phase C18 column (Vydac), 0.4 cm×25 cm) to monitor the leaching of the mesoporous channel encapsulated vancomycin or ATP molecules. After 12 hours, dithiothreitol (DTT, 18.50 mM) was added to the suspension to cleave the disulfide linkage between the CdS nanoparticle and the MSN. The kinetic profiles of the DTT-induced release of vancomycin and ATP were monitored by following two literature-reported HPLC separation conditions. The peaks/areas at 280 and 258 nm were monitored/integrated for the quantitative analysis of amounts of released vancomycin and ATP, respectively. See Farin, D., et al., J. Pharm. Biomed. Anal. 1998, 18, 367-372; and Veciana-Nogues, M. T., et al., Food Chem. 1997, 59, 467-472.

[3] = literature reports; cited from earlier work

SMILES | [Ca^2+]i response of astrocytes to ATP (astrocytes; 100.0 μM ATP perfusion, no MSNs, ME-treated astrocytes, triphosphate disodium salt) | [Ca^2+]i response of astrocytes to ATP in presence of empty capped MSNs (astrocytes; 100.0 μM ATP perfusion, CdS-capped MSNs without ATP encapsulation present, triphosphate disodium salt) | amount of mesopore-encapsulated molecule per 100.0 mg of linker-MSN material [1] [µmol] | loading efficiency [1] | amount released [2] [µmol] | portion of encapsulated molecules released [2] [%] | release as share of the total release seen in 3 days [2] [%] | [Ca^2+]i response of astrocytes to ME (astrocytes; ME 1.0 mM for 5 minutes, without MSNs) | isoelectric point (pI) [3]
Nc1ncnc2c1ncn2[C@@H]1O[C@H](COP(=O)([O-])OP(=O)([O-])OP(=O)(O)O)[C@@H](O)[C@H]1O.[Na+].[Na+] [ATP, adenosine triphosphate disodium salt] | obvious increases in [Ca^2+]i | [Ca^2+]i increased; also recorded: An increase in [Ca^2+]i | 4.7 | ~30.3 mol % | 1.3 | 28.2 | 85 |  | 
OCCS [ME] |  |  |  |  |  |  |  | no increase in [Ca^2+]; also recorded: failed to produce any [Ca^2+]i response | 
CN[C@H](CC(C)C)C(=O)N[C@H]1C(=O)N[C@@H](CC(N)=O)C(=O)N[C@H]2C(=O)N[C@H]3C(=O)N[C@H](C(=O)N[C@H](C(=O)O)c4cc(O)cc(O)c4-c4cc3ccc4O)[C@H](O)c3ccc(c(Cl)c3)Oc3cc2cc(c3O[C@@H]2O[C@H](CO)[C@@H](O)[C@H](O)[C@H]2O[C@H]2C[C@](C)(N)[C@H](O)[C@H](C)O2)Oc2ccc(cc2Cl)[C@H]1O [vancomycin, Vancomycin hydrochloride] |  |  | 2.5 | ca. 83.9 mol % | 1.6 | 53.8 | 85 |  | 8.3
